Measurements taken from patent US5728684A, “Determination of prodrugs metabolizable by the liver and therapeutic use thereof” (priority 1994, dated 1998).

How the values were obtained:
rat liver homogenate = experiment: HPLC time course of conversion of IPdR by rat liver homogenate; assay type: in vitro ADME
Experimental: FIGS. 1A-1C depict HPLC profiles of the conversion of IPdR to IUdR by liver homogenate. IPdR was incubated with rat liver homogenate. For control reactions, a portion of the supernatant was boiled for 5 minutes to inactivate all enzymes before use. The assay condition was as described hereinafter except 60 μl of the 100,000 g×60 minute supernatant (equivalent to approximately 0.5 mg protein/ml) was used in a reaction volume of 1500 μl . […]
For the standard assay condition, the reaction mixture contained 50 mM Tris-HCl, pH 7.5, 1 mM EDTA, 180 μM of IPdR (or its analogs) and approximately 0.01 mg protein of 10,000 g supernatant of tissue homogenate in a final volume of 500 μl and the incubation was at 37° C. for 10 minutes unless specified otherwise. […] The samples were reconstituted to the original aliquot volume with the HPLC mobile phase buffer and analyzed on a Alltech RP-18 column. IPdR, IUdR and IU were detected at a UV absorption wavelength of 230 nm, and IPdR was also detected at a UV absorption wavelength of 335 nm. […]
To study the conversion of IPdR to IUdR by liver enzyme the metabolites of IPdR were analyzed after incubation with a supernatant of rat liver homogenate using a reverse phase HPLC technique. IPdR and IUdR could be detected at an absorption wavelength of 230 nm but only IPdR could be detected at 335 nm. […]

[1] = test system: mixed function oxidase system; experiment: IPdR oxidation by mixed function oxidase system from rat liver microsomes; assay type: in vitro ADME; details: with or without NADPH
Source text: In order to determine which enzyme is responsible for the catalysts of this IPdR oxidation, a series of known oxido-reductases which have similar capability to oxidize a carbon atom with an adjacent amino group into a carbonyl functionality were explored for their ability to catalyze IPdR oxidation. […] A mixed function oxidase system prepared from the microsome of rat liver a broad spectrum of substrates and is NADPH dependent. […] Alcohol dehydrogenase (which can be obtained from Sigma) and alcohol oxidase (which can be obtained from Sigma) both reside in the soluble fraction of liver cell extracts, but the conversion of IPdR to […] was not detected with purified preparation of either enzyme under the same conditions that they converted their natural substrates effectively. […]

O=c1ncc(I)cn1[C@H]1C[C@H](O)[C@@H](CO)O1 [IPdR, 1-(2-deoxy-β-D-ribofuranosyl)-5-(iodo)-2-pyrimidinone]
conversion of IPdR to IUdR over time (rat liver homogenate; 37° C., 0, 15, 30 minutes (FIG. 1)): time dependent conversion of IPdR to IUdR
product produced from IPdR (rat liver homogenate; IUdR): IUdR appeared to be the only product
IPdR oxidase activity of rat liver microsomal fraction [1]: no IPdR oxidase activity
